Like-named read-outs stand apart in the source and are kept apart here.
Columns and labels:
[1] = test system: HLA-DR10 protein; assay: Surface plasmon resonance binding of SHALs to isolated HLA-DR10 protein; parameters: species or system human
From the text: In certain embodiments, the binding affinities of the best SHALs can be estimated by mass spectrometry of the SHAL-target complexes, followed by a more accurate surface plasmon resonance (SPR) spectroscopy (Shuck (1997) Annu Rev Biophys Biomol Struct., 26: 541-566; Van Regenmortal (2001) Cell Mol Life Sci., 58: 794-800) measurement of the SHAL-target binding affinity using for example, the IASYS Plus or BiaCore instruments. In order to perform the SPR measurement, biotin can be added to the linker through a third functional group (as described above) and the SHAL can be bound to commercially available streptavidin coated chips. […] Experiments can be performed to test the selectivity of SHAL binding to targets in the presence of molecules related to the targets. Thus, for example, where the SHAL is directed to HLA-DR10, the SHAL can be evaluated for its ability to bind target molecules in the presence of Raji cell surface proteins extracted and separated by affinity chromatography. After treating the gel with the biotinylated SHAL and rinsing out excess unbound SHAL, the location of the bound SHAL can be detected by staining with Rhodamine tagged streptavidin.
Protein binding experiments were conducted using surface plasma resonance on a Biacore 3000 (Biacore, Piscataway, N.J.) at 25° C. A research grade streptavidin immobilized chip (SA chip, Biacore) was preconditioned and normalized according to the manufacturers instructions. Biotin labeled SHALs were dissolved in DMSO and diluted in 1.05×PBS (Biacore) to a final concentration of 1×PBS pH 7.4, 5% DMSO, to match the running buffer. These SHALs were injected over the flow cell to yield a surface density of 500-1000RU (response units). Biotin (50 μM E-Z Link Amine-PEO2-Biotin, Pierce) was injected over all cells for 1 minute at 20 μl/min as a block to reduce non-specific binding. One flow cell was used as a reference cell and a different SHAL was immobilized on each of the three other cells.
Experiments measuring the binding of HLA-DR10 to the SHALs were carried out at a flow rate of 30 μl/minute in PBS pH7.4 running buffer using all 4 flow cells. HLA-DR10 isolated from Raji cells (Rose et al. (1996) Cancer Immunol Immunother 43:26-30) was diluted in running buffer to a final concentration ranging from […] and a series of concentrations were run randomly in triplicate. Protein was injected for 3 minutes, allowed to dissociate for 5 minutes followed by regeneration of the surface using a 1 minute injection of 0.1% sodium dodecylsulfate (SDS) followed by a washing step with a 2 minute injection of running buffer. The data, which were double referenced by subtracting the blank reference surface and an average of 5 blank injections, were processed using the program SCRUBBER (University of Utah).
Using homology modeling, HLA-DR amino acid residues critical for Lym-1 binding were mapped on a 3-D model of the HLA-DR10ß subunit (Balhorn et al, (2007) Clin. Cancer Res., 13(Suppl. 18): S5621-S5628). Cavities within the Lym-1 epitopic surface of the protein were identified using SPHGEN (Kuntz et al. (1982) J. Mol Biol. 161: 269-288; Desjarlais et al. (1988) J. Med. Chem., 31: 722-729). After computational ligand docking for each of the cavities, a combination of NMR spectroscopy, surface plasmon resonance (BIAcore 3000; Biacore, Piscataway, N.J.) and competitive binding experiments were used to confirm ligand binding to HLA-DR10 protein. […]

[2] = test system: Raji human HLA-DR10 expressing lymphoma cells; assay: Cytotoxicity assay (trypan blue) in Raji cell culture; format: cell-based
Protocol: Raji cells harvested in log growth phase were centrifuged, resuspended in fresh media and counted in 10% trypan-blue dye to determine initial and subsequent viability, as previously described (West et al. (2006) Cancer Biother. Radiopharm., 21: 645-654). When untreated, cells continued to multiply and nonviable cells, initially <5% of total cells, remained so over the course of the assays. To titrate cytotoxic activity, biotinylated tridentate SHAL at concentrations ranging between 0 and 7 nM (pm/ml media) was incubated with 0.5×10^6 cells/ml at 37° C. in a 5% CO2, humidified atmosphere (NAPCO, Portland, Oreg.). After 1, 2 and 3 days, cells were resuspended in trypan blue dye and counted in a hemocytometer. The fractional viability and absolute number of viable and non-viable cells/ml were determined.

SMILES | binding to isolated HLA-DR10 (in words) [1] | Kd ([1]; biotinylated versions of the SHALs immobilized on streptavidin chip, HLA-DR10 isolated from Raji cells) [nM] | threshold concentration for cytotoxic activity ([2]; Raji cell culture) [nM] | IC50 ([2]; Raji cell culture, read-out: IC50 concentration for cytotoxic activity) [nM] | threshold SHAL cytotoxic concentration ([2]; biotinylated tridentate SHAL, determined at 2 days) | IC50 ([2]; biotinylated tridentate SHAL, determined at 2 days, read-out: IC50 SHAL cytotoxic concentration) [nM] | SHAL binding to HLA-DR10 on Lym-1 addition ([1]; isolated or recombinant HLA-DR10 protein)
CC(=O)NC(CCCNC(=N)N)C(=O)NC(CCCNC(=N)N)C(=O)NC(CCCNC(=N)N)C(=O)NC(CCCNC(=N)N)C(=O)NC(CCCNC(=N)N)C(=O)NC(CCCNC(=N)N)C(=O)NCCCCC(NC(=O)C(CCCCNC(=O)COCCOCCNC(=O)COCCOCCNC(=O)COCCOCCNC(=O)C(CCCCNC(=O)COCCOCCNC(=O)c1ccc(NC(=O)C(CCCNC(=N)N)NC(=O)c2ccccc2)cc1)NC(=O)C(NS(=O)(=O)c1ccc(N=Nc2ccc(N(C)C)cc2)cc1)C(C)C)NC(=O)COCCOCCNC(=O)COCCOCCNC(=O)COCCOCCNC(=O)C(CCCCNC(=O)COCCOCCNC(=O)c1ccc(NC(=O)C(CCCNC(=N)N)NC(=O)c2ccccc2)cc1)NC(=O)C(NS(=O)(=O)c1ccc(N=Nc2ccc(N(C)C)cc2)cc1)C(C)C)C(=O)NC(CCCCNC(=O)CN1CCN(CC(=O)O)CCN(CC(=O)O)CCN(CC(=O)O)CC1)C(=O)O (centres unmarked) [(DvLPBaPPP)2LArg6AcLLDo] | did not interfere with SHAL binding to the protein | ~34 |  |  |  |  | 
CC(C)C(NS(=O)(=O)c1ccc(N=Nc2ccc(N(C)C)cc2)cc1)C(=O)NCCOCCOCC(=O)NC(CCCCNC(=O)C(CCCCNC(=O)CC(=O)Nc1ccccc1Oc1ncc(C(F)(F)F)cc1Cl)NC(=O)COCCOCCNC(=O)c1ccc(N2CCN(Cc3ccc(Cl)cc3)CC2)c([N+](=O)[O-])c1)C(=O)NCCOCCOCC(=O)NC(CCCCNC(=O)CN1CCN(CC(=O)O)CCN(CC(=O)O)CCN(CC(=O)O)CC1)C(=O)O (centres unmarked) [tridentate SHAL] | better than nanomolar |  | 0.7 | 2.5 | 0.7 nM (pm/ml media) | 2.5 | blocked by Lym-1 addition

From patent publication US10292992B2, “Selective high-affinity polydentate ligands and methods of making such” (LAWRENCE LIVERMORE NATIONAL SECURITY, LLC, priority 2008, dated 2019)
